According to patent US9233979B2, “Compounds that are ERK inhibitors” (Merck Sharp & Dohme Corp., priority 2012, dated 2016):

Molecular target: phosphorylated active hERK2 enzyme (Homo sapiens (Human), UniProt P28482)
Test: Active Human ERK2 (hERK2) Activity Assay (IMAP-FP)
Format: biochemical
Conditions: Table 6, 0.5 nM hERK2, 30 μM ATP, 10 point titration, read-out: AERK2 IC50
Method: Assays Active Human ERK2 (hERK2) Activity Assay:
Activated ERK2 activity was determined in an IMAP-FP assay (Molecular Devices). […] The final reaction in each well of 25 μL consists of 0.5 nM hERK2, 900 nM unlabeled peptide, 80 nM labeled-peptide, and 30 μM ATP. Phosphorylation reactions were allowed to proceed for 60 minutes and were immediately quenched by the addition of 60 μL IMAP detection beads (1:1000 dilutions) in IMAP binding buffer (Molecular Devices) with 24 mM NaCl. Plates were read on EnVision reader after 60 minutes binding equilibration using Fluorescence Polarization protocol (Perkin Elmer).

Sequence of phosphorylated active hERK2 enzyme (P28482 whole entry): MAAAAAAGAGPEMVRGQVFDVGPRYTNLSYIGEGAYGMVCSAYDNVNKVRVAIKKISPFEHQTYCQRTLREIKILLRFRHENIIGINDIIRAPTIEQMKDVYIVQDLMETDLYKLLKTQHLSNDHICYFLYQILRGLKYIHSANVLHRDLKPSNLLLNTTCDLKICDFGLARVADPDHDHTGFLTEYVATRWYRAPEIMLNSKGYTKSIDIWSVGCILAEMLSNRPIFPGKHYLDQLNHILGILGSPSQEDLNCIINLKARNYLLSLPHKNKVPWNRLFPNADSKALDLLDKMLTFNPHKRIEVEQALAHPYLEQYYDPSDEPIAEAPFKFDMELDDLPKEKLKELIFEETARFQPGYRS

Row | Compound | IC50 [nM]
1 | COCC1CN(c2n[nH]c3cc(NC(=O)N[C@H](COC)c4ccccc4)ncc23)C1 [Example 82, 1-{3-[3-(methoxy-methyl)azetidin-1-yl]-1H-pyrazolo[4,3-c]-pyridin-6-yl}-3-[(1S)-2-methoxy-1-phenylethyl]urea] | 3.7
2 | C[C@@H](NC(=O)Nc1cc2[nH]nc(N[C@@H]3COC[C@@H]3F)c2cn1)c1ccccc1 [Example 84, 1-(3-{[(3R,4R)-4-fluorotetrahydrofuran-3-yl]amino}-1H-pyrazolo[4,3-c]-pyridin-6-yl)-3-[(1R)-1-phenylethyl]urea] | 4.4
3 | C[C@H](Nc1n[nH]c2cc(NC(=O)N[C@H](C)c3ccccc3)ncc12)c1ccccn1 [Example 86, 1-[(1R)-1-phenylethyl]-3-(3-{[(1S)-1-pyridin-2-ylethyl]amino}-1H-pyrazolo[4,3-c]-pyridin-6-yl)urea] | 4.7
4 | C[C@@H](NC(=O)Nc1cc2[nH]nc(N[C@H](C)c3ccccn3)c2cn1)c1ccccc1 [Example 87, 1-[(1R)-1-phenylethyl]-3-(3-{[(1R)-1-pyridin-2-ylethyl]amino}-1H-pyrazolo[4,3-c]-pyridin-6-yl)urea] | 13.4
5 | C[C@@H](NC(=O)Nc1cc2[nH]nc(N3CCC4(CC3)COC4)c2cn1)c1ccccc1 [Example 89, 1-[3-(2-oxa-7-azaspiro[3.5]non-7-yl)-1H-pyrazolo[4,3-c]pyridin-6-yl]-3-[(1R)-1-phenylethyl]-urea] | 9.1
6 | C[C@@H](NC(=O)Nc1cc2[nH]nc(N3CC[C@@H]3C)c2cn1)c1ccccc1 [Example 90, 1-{3-[(2S)-2-methylazetidin-1-yl]-1H-pyrazolo[4,3-c]-pyridin-6-yl}-3-[(1R)-1-phenylethyl]-urea] | 14.9
7 | C[C@@H]1CCN1c1n[nH]c2cc(NC(=O)N[C@H](C)c3ccccc3)ncc12 [Example 91, 1-{3-[(2R)-2-methylazetidin-1-yl]-1H-pyrazolo[4,3-c]-pyridin-6-yl}-3-[(1R)-1-phenylethyl]-urea] | 52
8 | C[C@@H](NC(=O)Nc1cc2[nH]nc(N3CC(C)(O)C3)c2cn1)c1ccccc1 [Example 92, 1-[3-(3-hydroxy-3-methylazetidin-1-yl)-1H-pyrazolo[4,3-c]-pyridin-6-yl]-3-[(1R)-1-phenylethyl]urea] | 27.3
9 | C[C@@H](NC(=O)Nc1cc2[nH]nc(N3CC(C#N)C3)c2cn1)c1ccccc1 [Example 93, 1-[3-(3-cyanoazetidin-1-yl)-1H-pyrazolo[4,3-c]-pyridin-6-yl]-3-[(1R)-1-phenylethyl]urea] | 9.9
10 | C[C@@H](NC(=O)Nc1cc2[nH]nc(N3CC(C(C)(C)O)C3)c2cn1)c1ccccc1 [Example 94, 1-{3-[3-(1-hydroxy-1-methylethyl)-azetidin-1-yl]-1H-pyrazolo[4,3-c]-pyridin-6-yl}-3-[(1R)-1-phenylethyl]-urea] | 25.4

The remaining compounds from weak to strong by IC50, led by results:

Row | IC50 [nM] | Compound
11 | 3.6 | C[C@@H](NC(=O)Nc1cc2[nH]nc(N[C@@H]3COC[C@H]3F)c2cn1)c1ccccc1 [Example 88, 1-(3-{[(3R,4S)-4-fluorotetrahydrofuran-3-yl]amino}-1H-pyrazolo[4,3-c]-pyridin-6-yl)-3-[(1R)-1-phenylethyl]urea]
12 | 2.8 | C[C@@H](O)[C@@H](NC(=O)Nc1cc2[nH]nc(N3CCC3)c2cn1)c1ccc(F)cc1 [Example 105, 1-(3-azetidin-1-yl-1H-pyrazolo[4,3-c]pyridin-6-yl)-3-[(1S,2R)-1-(4-fluorophenyl)-2-hydroxypropyl]urea]
13 | 2.7 | C[C@@H](NC(=O)Nc1cc2[nH]nc(N3CC(CO)C3)c2cn1)c1ccccc1 [Example 83, 1-{3-[3-(hydroxyl-methyl)azetidin-1-yl]-1H-pyrazolo[4,3-c]-pyridin-6-yl}-3-[(1R)-1-phenylethyl]-urea]
14 | 2.7 | C[C@H]1CN(c2n[nH]c3cc(NC(=O)N[C@@H](c4ccccc4)C(C)(C)O)ncc23)C[C@H](C(F)(F)F)O1 [Example 102, 1-[(1S)-2-hydroxy-2-methyl-1-phenylpropyl]-3-{3-[(2S,6R)-2-methyl-6-(trifluoromethyl)-morpholin-4-yl]-1H-pyrazolo[4,3-c]-pyridin-6-yl}urea]
15 | 1.6 | CC(C)(O)[C@@H](NC(=O)Nc1cc2[nH]nc(N3CCC3)c2cn1)c1ccccc1 [Example 104, 1-(3-azetidin-1-yl-1H-pyrazolo[4,3-c]pyridin-6-yl)-3-[(1S)-2-hydroxy-2-methyl-1-phenylpropyl]urea]
16 | 1.1 | CC(C)(O)[C@@H](NC(=O)Nc1cc2[nH]nc(N3CCC3)c2cn1)c1ccc(F)cc1 [Example 100, 1-(3-azetidin-1-yl-1H-pyrazolo[4,3-c]-pyridin-6-yl)-3-[(1S)-1-(4-fluorophenyl)-2-hydroxy-2-methylpropyl]urea]
17 | 1.1 | C[C@@H]1CN(c2n[nH]c3cc(NC(=O)N[C@@H](c4ccccc4)C(C)(C)O)ncc23)C[C@H](C(F)(F)F)O1 [Example 103, 1-[(1S)-2-hydroxy-2-methyl-1-phenylpropyl]-3-{3-[(2R,6R)-2-methyl-6-(trifluoromethyl)-morpholin-4-yl]-1H-pyrazolo[4,3-c]-pyridin-6-yl}urea]
18 | 0.9 | CC(C)(O)[C@@H](NC(=O)Nc1cc2[nH]nc(N3CCC3)c2c(CO)n1)c1ccc(F)cc1 [Example 101, 1-[3-azetidin-1-yl-4-(hydroxymethyl)-1H-pyrazolo[4,3-c]-pyridin-6-yl]-3-[(1S)-1-(4-fluorophenyl)-2-hydroxy-2-methylpropyl]urea]
19 | 0.8 | C[C@@H](NC(=O)Nc1cc2[nH]nc(N[C@H]3COC[C@H]3F)c2cn1)c1ccccc1 [Example 85, 1-(3-{[(3S,4S)-4-fluorotetrahydrofuran-3-yl]amino}-1H-pyrazolo[4,3-c]-pyridin-6-yl)-3-[(1R)-1-phenylethyl]urea]
20 | 0.6 | CC(C)(O)[C@@H](NC(=O)Nc1cc2[nH]nc(N3CCOC(C(F)(F)F)C3)c2cn1)c1ccccc1 (stereo partly drawn) [Example 99, 1-[(1S)-2-hydroxy-2-methyl-1-phenylpropyl]-3-{3-[2-(trifluoromethyl)-morpholin-4-yl]-1H-pyrazolo[4,3-c]-pyridin-6-yl}urea]
21 | 0.5 | Cc1nc(NC(=O)N[C@@H](c2ccc(F)cc2)[C@@H](C)O)cc2[nH]nc(N3CCOCC3)c12 [Example 106, 1-((1S,2R)-1-(4-Fluorophenyl)-2-hydroxypropyl)-3-(4-methyl-3-morpholino-1H-pyrazolo[4,3-c]pyridin-6-yl)urea]
22 | 0.3 | Cc1nc(NC(=O)N[C@@H](c2ccccc2)C(C)(C)O)cc2[nH]nc(N3CCOCC3)c12 [Example 107, 1-[(1S)-2-hydroxy-2-methyl-1-phenylpropyl]-3-(4-methyl-3-morpholin-4-yl-1H-pyrazolo[4,3-c]-pyridin-6-yl)urea]
23 | 0.2 | C[C@@H](O)[C@@H](NC(=O)Nc1cc2[nH]nc(N3CCOCC3)c2cn1)c1ccc(F)cc1 [Example 97, 1-[(1S,2R)-1-(4-fluorophenyl)-2-hydroxypropyl]-3-(3-morpholin-4-yl-1H-pyrazolo[4,3-c]-pyridin-6-yl)urea]
24 | 0.2 | C[C@H](O)[C@@H](NC(=O)Nc1cc2[nH]nc(N3CCOCC3)c2cn1)c1ccc(F)cc1 [Example 98, 1-[(1S,2S)-1-(4-fluorophenyl)-2-hydroxypropyl]-3-(3-morpholin-4-yl-1H-pyrazolo[4,3-c]-pyridin-6-yl)urea]
